The values below come from patent publication US20190136195A1, “COMPOSITION FOR TREATING TENDONITIS AND MANUFACTURE THEREOF” (Gwo Xi Stem Cell Applied Technology Co., Ltd., priority 2016, published 2019).

Format in all cases: cell-based, Human
The test system of one series is hADSCs. Description: Cell activity (MTT cell viability) of hADSC with butylidenephthalide. To be noted: 24 and 48 hours. Here is the method:
hADSCs were seeded on a 96-well plate at a density of 3×10^3 cell/100 μl, and the 96-well plate was incubated at 37° C. in a humidified 5% CO2 atmosphere. After 16 hours, butylidenephthalide of various concentrations was added to the 96-well plate and then incubated at 37° C. in a 5% CO2 incubator. After 24 and 48 hours, the cell viability was determined. In cell viability assay, 100 μl of 10% MTT reagent was added to each well and then incubated in an incubator for 2 hours. 150 μl DMSO was added and mixed for 15 minutes. The absorbance (OD) of the aqueous solution was determined at 570 nm. According to FIG. 1, butylidenephthalide would not affect the cell activity if its concentration was blow 5 μg/ml. Therefore, 2.5 μg/ml of butylidenephthalide was selected to be used in the following experiments.

For series [1], the system named is COL1 protein (collagen, COL1A1). As to the kind of experiment: Protein expression of COL1A1 in hADSC. Particulars: hADSC at 1×10^5 cell/ml, 2.5 μg/ml, 96 or 168 hours. Here is the method:
(§1) 20 ml of 1.0×10^5 or 0.2×10^5 cells/ml hADSCs in DMEM medium (10% fetal bovine serum, 1% L-glutamine, 1% non-essential amino acid (NEAA), and 1% sodium pyruvate) was placed on a 15-cm dish, mixed with 2.5 μg/ml butylidenephthalide, and then incubated at 37° C. in a 5% CO2 incubator for 96 hours. After the medium was removed and replaced with fresh medium, hADSCs was cultured under the same condition as described above until 168 hours.

A further series relates to COL1A1. Description: mRNA expression of tendon healing factors in hADSC: COL1A1. To be noted: hADSC at 1×10^5 cell/ml, 2.5 μg/ml, 96 or 168 hours. Here is the method:
as §1

The test system of a further series is SCX. As to the kind of experiment: mRNA expression of tendon healing factors in hADSC: SCX. To be noted: hADSC at 1×10^5 cell/ml, 2.5 μg/ml, 96 or 168 hours. Here is the method: as §1

The structures appear in SMILES notation. Entries after “also recorded” stand apart in the source; their conditions may differ.

For the compound `CCCC=C1OC(=O)c2ccccc21` [butylidenephthalide, Butylidenephthalide], in the series with hADSCs, the “concentration that would not affect the cell activity (MTT)” value is under 5000 ng/mL. The COL1A1 protein expression entry in series [1] is reported as “increased, significantly; also recorded: significant increase”. For the same compound, in the series with COL1A1, the “COL1A1 mRNA expression” value is given as “increased, significantly; also recorded: significant increase”. Also, the “SCX mRNA expression” value with SCX is “increased, significantly; also recorded: significant increase”.
